Source: ChEMBL document CHEMBL3044672, “N9- and N7-(Chloromethyl Phenymethyl)Chloropurine Derivatives from , '-Dichloroxylenes: Synthesis and Anticancer Activity” (2005)

Legend:
Format in all cases: functional
[1] = system: DU-145; assay: Cytotoxicity against Homo sapiens (human) DU145 cells after 48 hr by sulforhodamine B assay; conditions: DU-145, 48 h
[2] = system: SN12C; assay: Cytotoxicity against Homo sapiens (human) SN12C cells after 48 hr by sulforhodamine B assay
[3] = system: A549; assay: Cytotoxicity against Homo sapiens (human) A549 cells after 48 hr by sulforhodamine B assay; conditions: A549, 48 h
[4] = system: NCI-H23; assay: Cytotoxicity against Homo sapiens (human) NCI-H23 cells after 48 hr by sulforhodamine B assay; conditions: NCI-H23, 48 h
[5] = system: HCT-15; assay: Cytotoxicity against Homo sapiens (human) HCT15 cells after 48 hr by sulforhodamine B assay; conditions: HCT-15, 48 h
[6] = system: MDA-MB-435; assay: Cytotoxicity against Homo sapiens (human) MDA-MB-435 cells after 48 hr by sulforhodamine B assay; conditions: MDA-MB-435, 48 h
[7] = system: TK-10; assay: Cytotoxicity against Homo sapiens (human) TK10 cells after 48 hr by sulforhodamine B assay; conditions: TK-10, 48 h
[8] = system: UACC-257; assay: Cytotoxicity against Homo sapiens (human) UACC257 cells after 48 hr by sulforhodamine B assay; conditions: UACC-257, 48 h
[9] = system: MCF7; assay: Cytotoxicity against Homo sapiens (human) MCF7 cells after 48 hr by sulforhodamine B assay; conditions: MCF7, 48 h
[10] = system: UO-31; assay: Cytotoxicity against Homo sapiens (human) UO31 cells after 48 hr by sulforhodamine B assay; conditions: UO-31, 48 h
[11] = system: RPMI-8226; assay: Cytotoxicity against Homo sapiens (human) RPMI8226 cells after 48 hr by sulforhodamine B assay; conditions: RPMI-8226, 48 h
[12] = system: K562; assay: Cytotoxicity against Homo sapiens (human) K562 cells after 48 hr by sulforhodamine B assay; conditions: K562, 48 h
[13] = system: LOX IMVI; assay: Cytotoxicity against Homo sapiens (human) LOXIMVI cells after 48 hr by sulforhodamine B assay
[14] = system: HCC 2998; assay: Cytotoxicity against Homo sapiens (human) HCC2998 cells after 48 hr by sulforhodamine B assay; conditions: HCC 2998, 48 h
[15] = system: NCI-H460; assay: Cytotoxicity against Homo sapiens (human) NCI-H460 cells after 48 hr by sulforhodamine B assay; conditions: NCI-H460, 48 h
[16] = system: Hs-578T; assay: Cytotoxicity against Homo sapiens (human) Hs 578T cells after 48 hr by sulforhodamine B assay
[17] = system: NCI-H226; assay: Cytotoxicity against Homo sapiens (human) NCI-H226 cells after 48 hr by sulforhodamine B assay; conditions: NCI-H226, 48 h
[18] = system: KM12; assay: Cytotoxicity against Homo sapiens (human) KM12 cells after 48 hr by sulforhodamine B assay; conditions: KM12, 48 h
[19] = system: IGROV-1; assay: Cytotoxicity against Homo sapiens (human) IGROV1 cells after 48 hr by sulforhodamine B assay; conditions: IGROV-1, 48 h
[20] = system: M14; assay: Cytotoxicity against Homo sapiens (human) M14 cells after 48 hr by sulforhodamine B assay; conditions: M14, 48 h
[21] = system: SK-MEL-28; assay: Cytotoxicity against Homo sapiens (human) SK-MEL-28 cells after 48 hr by sulforhodamine B assay; conditions: SK-MEL-28, 48 h
[22] = system: T47D; assay: Cytotoxicity against Homo sapiens (human) T47D cells after 48 hr by sulforhodamine B assay
[23] = system: PC-3; assay: Cytotoxicity against Homo sapiens (human) PC3 cells after 48 hr by sulforhodamine B assay; conditions: PC-3, 48 h
[24] = system: MCF7; assay: Cytotoxicity against Homo sapiens (human) MCF7 cells assessed as cell growth at 10^-4 M after 48 hr by Alamar blue assay; conditions: MCF7, 48 h, read-out: Activity
[25] = system: HT-29; assay: Cytotoxicity against Homo sapiens (human) HT-29 cells after 48 hr by sulforhodamine B assay; conditions: HT-29, 48 h
[26] = system: U-251; assay: Cytotoxicity against Homo sapiens (human) U251 cells after 48 hr by sulforhodamine B assay; conditions: U-251, 48 h
[27] = system: SK-MEL-5; assay: Cytotoxicity against Homo sapiens (human) SK-MEL-5 cells after 48 hr by sulforhodamine B assay; conditions: SK-MEL-5, 48 h
[28] = system: NCI-H460; assay: Cytotoxicity against Homo sapiens (human) NCI-H460 cells assessed as cell growth at 10^-4 M after 48 hr by Alamar blue assay; conditions: NCI-H460, 48 h, read-out: Activity
[29] = system: HOP-92; assay: Cytotoxicity against Homo sapiens (human) HOP92 cells after 48 hr by sulforhodamine B assay; conditions: HOP-92, 48 h
[30] = Cytotoxicity against Homo sapiens (human) NCI-ADR-RES cells after 48 hr by sulforhodamine B assay
[31] = system: OVCAR-4; assay: Cytotoxicity against Homo sapiens (human) OVCAR4 cells after 48 hr by sulforhodamine B assay; conditions: OVCAR-4, 48 h
[32] = system: A498; assay: Cytotoxicity against Homo sapiens (human) A498 cells after 48 hr by sulforhodamine B assay; conditions: A498, 48 h
[33] = read-out: LC50 (the source's name)

`Nc1nc(Cl)c2ncn(Cc3ccccc3CCl)c2n1` gave an LC50 [1] of 70.8 µM, a TGI [1] of 32.4 µM and an LC50 (50% lethal concentration) [2] of 19.5 µM. The TGI [2] was 5.62 µM, the TGI [3] was 53.7 µM and the CC50 [3, 33] was over 100 µM. It also gave a TGI [4] of 8.91 µM, a CC50 [4, 33] of 78.9 µM and a TGI [5] of 7.41 µM. The CC50 [5, 33] was over 100 µM, the LC50 [6] was over 100 µM and the TGI [6] was 26.9 µM. The TGI [7] was 36.3 µM, the CC50 [7, 33] was 75.9 µM and the LC50 (concentration killing 50% of cells) [8] was over 100 µM. The TGI [8] was 38 µM, the LC50 (concentration killing 50% of cells) [9] was 87.1 µM and the TGI [9] was 24.6 µM. For the same compound, the LC50 (concentration causing 50% net cell kill) [10] was over 100 µM, the TGI [10] was 44.7 µM and the TGI [11] was over 100 µM. For the same compound, the CC50 [11, 33] was over 100 µM, the TGI [12] was over 100 µM and the CC50 [12, 33] was over 100 µM. For the same compound, the LC50 [13] was over 100 µM, the TGI [13] was 21.9 µM and the TGI [14] was 6.61 µM. For the same compound, the CC50 [14, 33] was 26.3 µM, the TGI [15] was 37.1 µM and the CC50 [15, 33] was over 100 µM. The LC50 [16] was over 100 µM, the TGI [16] was 77.6 µM and the TGI [17] was 10 µM. It also gave a CC50 [17, 33] of 53.7 µM, a TGI [18] of 38.9 µM and a CC50 [18, 33] of 97.2 µM. For the same compound, the LC50 [19] was over 100 µM, the TGI [19] was over 100 µM and the LC50 [20] was over 100 µM. The TGI [20] was 39.8 µM, the LC50 (concentration killing 50% of cells) [21] was 74.1 µM and the TGI [21] was 20.9 µM. For the same compound, the LC50 [22] was over 100 µM, the TGI [22] was 83.2 µM and the LC50 (concentration causing 50% cell kill) [23] was over 100 µM. The TGI [23] was 67.6 µM, the growth at 100 µM [24] was 0% and the TGI [25] was 19.1 µM. The CC50 [25, 33] was over 100 µM, the LC50 (concentration killing 50% of cells) [26] was 72.4 µM and the TGI [26] was 13.5 µM. It also gave an LC50 [27] of 75.9 µM, a TGI [27] of 26.3 µM and a growth at 100 µM [28] of 0%. For the same compound, the TGI [29] was 30.9 µM, the CC50 [29, 33] was over 100 µM and the LC50 (concentration killing 50% of cells) [30] was over 100 µM. For the same compound, the TGI [30] was 34.7 µM, the LC50 (concentration killing 50% of cells) [31] was 50.1 µM and the TGI [31] was 6.46 µM. It also gave an LC50 (lethal concentration, 50% cell kill) [32] of 95.5 µM and a TGI [32] of 44.7 µM.
